Experimental data as given in patent publication US5569654A, “Benzodiazepinones” (Glaxo Group Limited, priority 1992, dated 1996).

Tests used:
[1] = target: T1, CCK-B receptor (Cavia porcellus, UniProt H0VZC5); assay: CCK-B receptor binding affinity (guinea pig cortex assay)
T1 construct: guinea pig cortex assay; from tissue; host or cells: guinea pig cortex
T1 sequence (H0VZC5 1-426): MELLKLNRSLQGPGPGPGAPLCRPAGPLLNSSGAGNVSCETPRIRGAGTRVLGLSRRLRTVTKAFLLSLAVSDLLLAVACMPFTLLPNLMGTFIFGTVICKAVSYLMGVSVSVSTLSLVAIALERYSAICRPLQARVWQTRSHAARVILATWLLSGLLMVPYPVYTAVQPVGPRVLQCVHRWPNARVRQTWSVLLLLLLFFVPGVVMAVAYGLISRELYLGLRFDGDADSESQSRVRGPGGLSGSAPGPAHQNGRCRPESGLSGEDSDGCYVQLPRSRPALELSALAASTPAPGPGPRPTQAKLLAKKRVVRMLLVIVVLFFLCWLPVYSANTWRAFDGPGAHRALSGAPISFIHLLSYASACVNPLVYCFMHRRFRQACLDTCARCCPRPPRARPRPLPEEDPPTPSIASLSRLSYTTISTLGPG
Description: The affinity of the compound of the invention for the CCK-B receptor has also been determined using the guinea pig codex assay as described by G Dal Fornoto et al J. Pharmacol Exp. Ther., 261 1056-1063, 1992.
The binding affinity of the compounds of the invention for the CCK-B receptor (guinea pig cortex assay) was determined using the procedure of G Dal Forno et al J. Pharmacol. Exp & Ther. 261--1056-1063. The pKi values determined with respresentative compounds of invention were as follows: […]

[2] = system: rats; assay: tolerability in rats; type: in vivo; conditions: doses at which the compound exhibits CCK-B antagonist activity
From the text: (§1) The compounds of the invention are essentially non-toxic and therapeutically useful doses.

[3] = system: dogs; assay: tolerability in dogs; type: in vivo; conditions: doses at which the compound exhibits CCK-B antagonist activity
From the text: as §1

CN(C(=O)CN1C(=O)C(NC(=O)Nc2cccc(C#N)c2)N=C(CN2CCSCC2)c2ccccc21)c1ccccc1 (stereo not shown) [Example 4, 2-{3-[3-(3-Cyano-phenyl)-ureido]-2-oxo-5-[1,4]thiazinan-4-ylmethyl-2,3-dihydro-benzo[e][1,4]diazepin-1-y}-N-methyl-N-phenyl-acetamide]
Ki [1]: 1.58 nM

CN(C(=O)CN1C(=O)C(NC(=O)Nc2cccc(C#N)c2)N=C(CN2CCCCC2)c2ccccc21)c1ccccc1 (stereo not shown) [Example 1, 2-{3-[3-(3-Cyano-phenyl)-ureido]-2-oxo-5-piperidin-1-ylmethyl-2,3-dihydro-benzo-[e][4.1]diazepin-1-yl}-N-methyl-N-phenyl-acetamide]
Ki [1]: 1 nM

CN1CCN(CC2=NC(NC(=O)Nc3cccc(C#N)c3)C(=O)N(CC(=O)N(C)c3ccccc3)c3ccccc32)CC1 (stereo not shown) [Example 16, 2-{3-[3-(3-Cyano-phenyl)-ureido]-5-(4-methyl-piperazin-1-ylmethyl)-2-oxo-2,3-dihydro-benzo[e][1,4]diazepin-1-yl}-N-methyl-N-phenyl-acetamide]
Ki [1]: 5.01 nM

CN(C(=O)CN1C(=O)C(NC(=O)Nc2ccccc2)N=C(CN2CCOCC2)c2ccccc21)c1ccccc1 (stereo not shown) [Example 10, N-Methyl-2-[5-morpholin-4-ylmethyl-2-oxo-3-(3-phenyl-ureido)-2,3-dihydro-benzo[e][1,4]diazepin-1-yl]-N-methyl-N-phenyl-acetamide]
Ki [1]: 0.794 nM

CN(C(=O)CN1C(=O)C(NC(=O)Nc2cccc(C#N)c2)N=C(CN2CCCC2)c2ccccc21)c1ccccc1 (stereo not shown) [Example 2, 2-{3-[3-(3-Cyano-phenyl)-ureido]-2-oxo-5-pyrrolidin-1-ylmethyl-2,3-dihydro-[e][1,4]diazepin-1-yl}-N-methyl-N-phenyl-acetamide]
Ki [1]: 3.98 nM

C[C@@H]1CC[C@H](C)N1C(=O)CN1C(=O)C(NC(=O)Nc2cccc(C#N)c2)N=C(CN2CCOCC2)c2ccccc21 (stereo partly shown) [Example 5]
Ki [1]: 3.16 nM

O=C(Nc1cccc(-c2cnco2)c1)NC1N=C(CN2CCOCC2)c2ccccc2N(CC(=O)N2CCCC2)C1=O (stereo not shown) [Example 19, 1-[5-(Morpholin-4-yl-methyl)-2-oxo-1-(2-oxo-2-pyrrolidin-1-yl-ethyl)-2,3-dihydro-benzo[e][1,4]diazepin-3-yl]-3-(3-oxazol-5-yl-phenyl)-urea]
Ki [1]: 3.16 nM

COc1cccc(NC(=O)NC2N=C(CN3CCOCC3)c3ccccc3N(CC(=O)N(C)c3ccccc3)C2=O)c1 (stereo not shown) [Example 9, 2-{3-[3-(3-Methoxy-phenyl)-ureido]-5-morpholin-4-ylmethyl-2-oxo-2,3-dihydro-benzo[e][1,4]diazepin-1-yl}-N-methyl-N-phenyl-acetamide]
Ki [1]: 1.26 nM

COc1cccc(NC(=O)NC2N=C(CCN(C)C)c3ccccc3N(CC(=O)N(C)c3ccccc3)C2=O)c1 (stereo not shown) [Example 17]
Ki [1]: 2.51 nM

CCN(C(=O)CN1C(=O)C(NC(=O)Nc2cccc(C#N)c2)N=C(CN2CCOCC2)c2ccccc21)c1ccccc1 (stereo not shown) [Example 7, 2-{3-[3-(3-Cyano-phenyl)-ureido]-5-morpholin-4-ylmethyl-2-oxo-2,3-dihydro-benzo[e][1,4]diazepin-1yl}-N-ethyl-N-phenyl-acetamide]
Ki [1]: 1.58 nM

CN(C(=O)CN1C(=O)C(NC(=O)Nc2cccc(C(F)(F)F)c2)N=C(CN2CCOCC2)c2ccccc21)c1ccccc1 (stereo not shown) [Example 11, N-Methyl-2-{5-morpholin-4-ylmethyl-2-oxo-3-[3-(3-trifluoromethyl-phenyl)-ureido]-2,3-dihydro-benzo[e][1,4]diazepin-1-yl}-N-phenyl-acetamide]
Ki [1]: 0.501 nM

CN(C(=O)CN1C(=O)C(NC(=O)Nc2cccc(C#N)c2)N=C(CN2CCOCC2)c2ccccc21)c1ccc(F)cc1 (stereo not shown) [Example 6, 2-{3-[3-(3-Cyano-phenyl)-ureido]-5-morpholin-4-ylmethyl-2-oxo-2,3-dihydro-benzo-[e][1,4]diazepin-1-yl}-N-(4-fluoro-phenyl)-N-methyl-acetamide]
Ki [1]: 2 nM

CN(C(=O)CN1C(=O)C(NC(=O)Nc2cccc(C#N)c2)N=C(CN2CCOCC2)c2ccccc21)c1ccccc1 (stereo not shown) [Example 18, 2-{3-[3-(3-Cyano-phenyl)-ureido]-5-morpholin-4-ylmethyl-2-oxo-2,3-dihydro-benzo [e][1,4]diazepin-1-yl}-N-methyl-N-phenyl-acetamide]
Ki [1]: 1.26 nM

COc1cccc(NC(=O)NC2N=C(CN3CCOCC3)c3ccccc3N(CC(=O)N(C)c3ccccc3)C2=O)c1 (single isomer, unassigned; (+)) [Example 14, (+)-2-{3-[3-(3-Methoxy-phenyl)-ureido]-5-morpholin-4-ylmethyl-2-oxo-2.3-dihydro-benzo [e][1,4]diazepin-1-yl}-N-methyl-N-phenyl-acetamide]
Ki [1]: 1 nM | untoward effects in rats [2]: no untoward effects were observed | untoward effects in dogs [3]: no untoward effects were observed

CC(C)(C)C(=O)CN1C(=O)C(NC(=O)Nc2cccc(C#N)c2)N=C(CN2CCOCC2)c2ccccc21 (stereo not shown) [Example 8, 1-(3-Cyano-phenyl)-3-[1-(3,3-dimethyl-2-oxo-butyl)-5-morpholin-4-ylmethyl-2-oxo-2,3-dihydro-1H-benzo[e][1,4]diazepin-3-yl]-urea]
Ki [1]: 1.58 nM

CC(C)NCC1=NC(NC(=O)Nc2cccc(C#N)c2)C(=O)N(CC(=O)N(C)c2ccccc2)c2ccccc21 (stereo not shown) [Example 3, 2-{-[3-(3-Cyano-phenyl)ureido]-5-(isopropylamino-methyl)-2-oxo-2,3-dihydro-benzo-[e][1,4]diazepin-1-yl}-N-methyl-N-phenyl-acetamide]
Ki [1]: 2.51 nM

CN(C(=O)CN1C(=O)C(NC(=O)Nc2cccc(N)c2)N=C(CN2CCOCC2)c2ccccc21)c1ccccc1 (stereo not shown) [Example 13, 2-{3-[3-(3-Amino-phenyl)-ureido]-5-morpholin-4-ylmethyl-2-oxo-2,3-dihydro-benzo[e][1,4]diazepin-1-yl}-N-methyl-N-phenyl-acetamide]
Ki [1]: 6.31 nM
